Data as given in ChEMBL document CHEMBL4118135, “Optimized allosteric inhibition of engineered protein tyrosine phosphatases with an expanded palette of biarsenical small molecules” (Bioorg Med Chem, 2018).
Substitutions are numbered along the chain they refer to. Activity calls are given as the source filed them. The rule behind the calls is not given here.

Legend:
[1] = target: Tyrosine-protein phosphatase non-receptor type 6 (Homo sapiens) (UniProt P29350); experiment: Inhibition of allosterically sensitized mutant form of His6-tagged human SHP1 catalytic domain using pNPP as substrate after 120 mins by quenched phosphatase activity assay
[2] = test system: T1, Tyrosine-protein phosphatase non-receptor type 1 (Homo sapiens), P18031 [P87C,A122C]; experiment: Inhibition of allosterically sensitized His6-tagged human PTP1B catalytic domain P87C/A122C mutant overexpressed in Escherichia coli BL21(DE3) cells using pNPP as substrate incubated for 90 mins by quenched phosphatase activity assay
T1 sequence (whole entry): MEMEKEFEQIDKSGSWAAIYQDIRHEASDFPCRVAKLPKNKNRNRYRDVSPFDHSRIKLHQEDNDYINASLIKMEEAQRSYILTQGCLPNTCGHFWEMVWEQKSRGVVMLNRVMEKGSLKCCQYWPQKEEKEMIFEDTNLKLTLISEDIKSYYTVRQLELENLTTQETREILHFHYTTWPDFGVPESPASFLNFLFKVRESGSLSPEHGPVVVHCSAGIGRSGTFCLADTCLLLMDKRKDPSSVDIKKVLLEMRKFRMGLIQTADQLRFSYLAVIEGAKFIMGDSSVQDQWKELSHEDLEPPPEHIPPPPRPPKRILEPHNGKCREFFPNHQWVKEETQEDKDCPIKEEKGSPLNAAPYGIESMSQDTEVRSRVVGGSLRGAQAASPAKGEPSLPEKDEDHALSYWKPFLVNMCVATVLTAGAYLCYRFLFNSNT

[3] = target: T2, Tyrosine-protein phosphatase non-receptor type 1 (Homo sapiens, UniProt P18031, A122C/P87C); experiment: Inhibition of allosterically sensitized His6-tagged human PTP1B catalytic domain P87C/A122C mutant overexpressed in Escherichia coli crude cell lysate using pNPP as substrate incubated for 90 mins by quenched phosphatase activity assay
[4] = test system: T1, Tyrosine-protein phosphatase non-receptor type 1 (Homo sapiens), P18031 [P87C,A122C]; experiment: Inhibition of allosterically sensitized His6-tagged human PTP1B catalytic domain P87C/A122C mutant at 2000 nM using pNPP as substrate incubated for 10 to 40 mins by quenched phosphatase activity assay; conditions: TDE = time-dependent effect
[5] = test system: T1, Tyrosine-protein phosphatase non-receptor type 1 (Homo sapiens), P18031 [P87C,A122C]; experiment: Inhibition of allosterically sensitized His6-tagged human PTP1B catalytic domain P87C/A122C mutant at 500 nM using DADEpYLIPQQG as substrate incubated for 90 mins by continuous phosphatase activity assay
[6] = target: T2, Tyrosine-protein phosphatase non-receptor type 1; experiment: Inhibition of allosterically sensitized His6-tagged human PTP1B catalytic domain P87C/A122C mutant using pNPP as substrate incubated for 90 mins by quenched phosphatase activity assay
[7] = target: T3, Tyrosine-protein phosphatase non-receptor type 1 (Homo sapiens) (UniProt P18031); experiment: Inhibition of His6-tagged human wild-type PTP1B catalytic domain at 2000 nM using pNPP as substrate incubated for 90 mins by quenched phosphatase activity assay
T3 sequence (whole entry): T1 sequence (whole entry) with C87P, C122A

[8] = target: T4, Tyrosine-protein phosphatase non-receptor type 7 (Homo sapiens) (UniProt P35236); experiment: Inhibition of His6-tagged human wild-type HePTP catalytic domain at 1 uM using pNPP as substrate incubated for 90 mins by quenched phosphatase activity assay
T4 sequence (whole entry): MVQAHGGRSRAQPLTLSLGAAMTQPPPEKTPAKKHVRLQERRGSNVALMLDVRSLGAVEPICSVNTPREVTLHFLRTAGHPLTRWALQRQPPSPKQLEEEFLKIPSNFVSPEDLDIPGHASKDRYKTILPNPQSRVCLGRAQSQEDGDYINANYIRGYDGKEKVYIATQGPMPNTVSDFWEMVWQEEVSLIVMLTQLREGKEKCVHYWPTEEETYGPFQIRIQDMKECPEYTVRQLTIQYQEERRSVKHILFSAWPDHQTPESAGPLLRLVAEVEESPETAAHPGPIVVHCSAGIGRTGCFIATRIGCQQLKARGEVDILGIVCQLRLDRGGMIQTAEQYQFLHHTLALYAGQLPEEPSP

[9] = target: Tyrosine-protein phosphatase non-receptor type 13 (Homo sapiens) (UniProt Q12923); experiment: Inhibition of allosterically sensitized mutant form of His6-tagged human FAP1 catalytic domain using pNPP as substrate after 90 mins by quenched phosphatase activity assay
[10] = target: T4, Tyrosine-protein phosphatase non-receptor type 7 (Homo sapiens); experiment: Inhibition of His6-tagged human wild-type HePTP catalytic domain overexpressed in Escherichia coli crude cell lysate at 2000 nM using pNPP as substrate incubated for 90 mins by quenched phosphatase activity assay
[11] = target: T4, Tyrosine-protein phosphatase non-receptor type 7 (Homo sapiens); experiment: Inhibition of His6-tagged wild type human HePTP catalytic domain overexpressed in Escherichia coli BL21(DE3) cells at 25 uM using pNPP as substrate incubated for 90 mins by quenched phosphatase activity assay
[12] = test system: T5, Tyrosine-protein phosphatase non-receptor type 7 (Homo sapiens), P35236 [P171C,V205C]; experiment: Binding affinity to allosterically sensitized mutant form of His6-tagged human HePTP catalytic domain overexpressed in Escherichia coli crude cell lysate at 100 uM after 90 mins by SDS-PAGE analysis
T5 sequence (whole entry): T4 sequence (whole entry) with P171C, V205C

[13] = test system: Tyrosine-protein phosphatase non-receptor type 7 (Homo sapiens), P35236 [UNDEFINED MUTATION]; experiment: Inhibition of allosterically sensitized mutant form of His6-tagged human wild-type HePTP catalytic domain at 1.92 uM using pNPP as substrate incubated for 90 mins by quenched phosphatase activity assay
[14] = test system: T5, Tyrosine-protein phosphatase non-receptor type 7 (Homo sapiens), P35236 [P171C,V205C]; experiment: Inhibition of allosterically sensitized mutant form of His6-tagged human HePTP at 1000 nM using pNPP as substrate measured at 5 mins by quenched phosphatase activity assay

Sequence of Tyrosine-protein phosphatase non-receptor type 13 (Homo sapiens) (Q12923 whole entry, the tested form may be a part): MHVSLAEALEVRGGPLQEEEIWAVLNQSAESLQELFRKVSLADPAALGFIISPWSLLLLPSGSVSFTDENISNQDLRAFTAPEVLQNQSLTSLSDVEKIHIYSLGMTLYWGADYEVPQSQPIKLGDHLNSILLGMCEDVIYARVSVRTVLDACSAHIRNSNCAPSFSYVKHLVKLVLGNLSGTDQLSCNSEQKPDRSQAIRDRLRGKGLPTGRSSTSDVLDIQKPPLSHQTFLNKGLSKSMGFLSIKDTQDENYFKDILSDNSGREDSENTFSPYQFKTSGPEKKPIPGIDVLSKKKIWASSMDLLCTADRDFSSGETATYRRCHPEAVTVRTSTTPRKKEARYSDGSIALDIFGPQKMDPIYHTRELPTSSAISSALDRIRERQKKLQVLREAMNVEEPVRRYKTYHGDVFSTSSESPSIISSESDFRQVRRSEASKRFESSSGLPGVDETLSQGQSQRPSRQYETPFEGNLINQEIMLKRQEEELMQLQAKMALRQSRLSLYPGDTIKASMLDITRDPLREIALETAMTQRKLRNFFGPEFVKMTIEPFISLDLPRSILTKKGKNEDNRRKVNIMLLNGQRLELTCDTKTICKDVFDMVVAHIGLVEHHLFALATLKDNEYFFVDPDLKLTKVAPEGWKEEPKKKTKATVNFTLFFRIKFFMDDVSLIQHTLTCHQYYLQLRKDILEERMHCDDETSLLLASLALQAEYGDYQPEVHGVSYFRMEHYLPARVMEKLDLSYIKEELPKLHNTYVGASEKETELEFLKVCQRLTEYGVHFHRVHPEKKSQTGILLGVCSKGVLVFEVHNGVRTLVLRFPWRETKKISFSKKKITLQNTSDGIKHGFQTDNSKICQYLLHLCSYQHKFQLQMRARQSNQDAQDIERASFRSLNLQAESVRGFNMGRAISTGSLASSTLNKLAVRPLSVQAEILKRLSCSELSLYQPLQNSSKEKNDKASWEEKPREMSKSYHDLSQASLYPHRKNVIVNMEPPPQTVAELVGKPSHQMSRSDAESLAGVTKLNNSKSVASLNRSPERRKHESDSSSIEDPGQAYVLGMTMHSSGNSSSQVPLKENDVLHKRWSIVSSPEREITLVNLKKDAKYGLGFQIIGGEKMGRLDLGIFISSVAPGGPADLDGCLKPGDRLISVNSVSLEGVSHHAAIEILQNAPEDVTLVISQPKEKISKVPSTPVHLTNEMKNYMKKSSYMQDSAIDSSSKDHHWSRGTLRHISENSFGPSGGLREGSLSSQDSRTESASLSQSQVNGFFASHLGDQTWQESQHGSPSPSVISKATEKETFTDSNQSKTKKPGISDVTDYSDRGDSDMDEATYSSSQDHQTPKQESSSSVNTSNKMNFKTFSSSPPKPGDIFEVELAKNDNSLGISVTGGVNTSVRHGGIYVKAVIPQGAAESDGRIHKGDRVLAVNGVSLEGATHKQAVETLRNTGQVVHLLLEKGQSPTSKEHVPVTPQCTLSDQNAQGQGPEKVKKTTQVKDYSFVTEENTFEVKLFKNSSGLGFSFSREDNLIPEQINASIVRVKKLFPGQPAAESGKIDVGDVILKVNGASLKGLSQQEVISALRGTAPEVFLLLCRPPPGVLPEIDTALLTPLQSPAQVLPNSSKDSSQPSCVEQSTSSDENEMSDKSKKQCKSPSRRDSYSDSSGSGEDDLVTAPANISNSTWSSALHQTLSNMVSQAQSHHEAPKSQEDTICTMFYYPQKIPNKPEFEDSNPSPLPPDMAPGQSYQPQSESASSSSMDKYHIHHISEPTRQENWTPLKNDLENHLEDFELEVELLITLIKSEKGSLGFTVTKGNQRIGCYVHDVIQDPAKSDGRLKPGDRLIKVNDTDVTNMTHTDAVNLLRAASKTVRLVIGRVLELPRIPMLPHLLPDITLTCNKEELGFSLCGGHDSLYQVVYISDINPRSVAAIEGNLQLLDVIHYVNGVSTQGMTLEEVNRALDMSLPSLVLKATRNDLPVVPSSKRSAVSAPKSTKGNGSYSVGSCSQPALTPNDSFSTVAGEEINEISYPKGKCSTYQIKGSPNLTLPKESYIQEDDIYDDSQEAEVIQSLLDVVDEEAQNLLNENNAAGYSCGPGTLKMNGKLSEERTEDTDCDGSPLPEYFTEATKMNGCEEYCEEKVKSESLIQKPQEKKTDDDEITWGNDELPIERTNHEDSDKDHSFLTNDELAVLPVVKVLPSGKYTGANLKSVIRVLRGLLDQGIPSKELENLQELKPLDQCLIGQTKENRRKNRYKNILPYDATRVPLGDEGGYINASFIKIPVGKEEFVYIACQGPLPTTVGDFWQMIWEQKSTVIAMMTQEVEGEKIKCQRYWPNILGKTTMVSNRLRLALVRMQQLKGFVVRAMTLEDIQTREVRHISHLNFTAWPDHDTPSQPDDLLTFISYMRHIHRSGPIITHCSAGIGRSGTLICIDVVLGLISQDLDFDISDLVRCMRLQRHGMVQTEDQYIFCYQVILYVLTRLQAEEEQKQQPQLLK
Sequence of Tyrosine-protein phosphatase non-receptor type 6 (Homo sapiens) (P29350 whole entry, the tested form may be a part): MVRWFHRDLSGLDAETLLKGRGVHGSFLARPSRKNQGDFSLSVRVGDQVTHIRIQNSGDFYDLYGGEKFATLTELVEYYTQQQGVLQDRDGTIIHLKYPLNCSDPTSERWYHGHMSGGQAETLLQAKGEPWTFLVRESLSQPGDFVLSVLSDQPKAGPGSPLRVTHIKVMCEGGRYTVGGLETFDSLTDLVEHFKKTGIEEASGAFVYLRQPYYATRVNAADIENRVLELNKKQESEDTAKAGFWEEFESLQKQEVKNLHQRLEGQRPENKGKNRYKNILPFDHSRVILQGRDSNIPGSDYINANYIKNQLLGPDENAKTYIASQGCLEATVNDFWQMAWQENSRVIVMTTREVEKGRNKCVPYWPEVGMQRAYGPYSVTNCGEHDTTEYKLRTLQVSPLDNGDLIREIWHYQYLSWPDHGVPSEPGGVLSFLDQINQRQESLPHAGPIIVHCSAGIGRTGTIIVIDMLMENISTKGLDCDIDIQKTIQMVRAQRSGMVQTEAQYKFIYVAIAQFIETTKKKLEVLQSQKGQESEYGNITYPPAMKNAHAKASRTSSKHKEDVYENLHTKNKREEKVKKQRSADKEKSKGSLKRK

| Structure (SMILES) | inhibition [1] | inhibition [2] | IC50 [3] [nM] | inhibition [4] | inhibition [5] | IC50 [6] [nM] | inhibition [7] | inhibition [8] | inhibition [9] | inhibition [10] | inhibition [11] | Activity [12] | inhibition [13] [%] | inhibition [14] [%] |
| --- | --- | --- | --- | --- | --- | --- | --- | --- | --- | --- | --- | --- | --- | --- |
| CC1(C)C(/C=C/C=C2/N(CCCCS(=O)(=O)O)c3ccc([As]4SCCS4)cc3C2(C)C)=[N+](CCCCS(=O)(=O)O)c2ccc([As]3SCCS3)cc21 | Dose-dependent effect | Dose-dependent effect | 125 | Tde | Active | 125 | inactive |  |  |  |  |  |  |  |
| O=C(O)c1ccccc1-c1c2ccc(=O)c([As]3SCCS3)c-2oc2c([As]3SCCS3)c(O)ccc12 |  |  |  |  |  |  |  | inactive | Dose-dependent effect | inactive | inactive | inactive | 50 | 70 |
